Test [1] relates to MDA-MB-361-DYT2 (breast cancer) cells. In words: In vitro cell assay (MTS cell viability), MDA-MB-361-DYT2. In kind it is cell-based. The conditions noted are these: 96 h, free compounds; 96 hours after treatment. As to the method:
(§1) In Vitro Cell Assay Procedure
(§2) Target expressing (BT474 (breast cancer), N87 (gastric cancer), HCC1954 (breast cancer), MDA-MB-361-DYT2 (breast cancer)) or non-expressing (HT-29) cells were seeded in 96-well cell culture plates for 24 hours before treatment. Cells were treated with 3-fold serially diluted antibody-drug conjugates or free compounds (i. e. no antibody conjugated to the drug) in duplicate at 10 concentrations. Cell viability was determined by CellTiter 96® AQueous One Solution Cell Proliferation MTS Assay (Promega, Madison Wis.) 96 hours after treatment. Relative cell viability was determined as percentage of untreated control. IC50 values were calculated using a four parameter logistic model #203 with XLfit v4. 2 (IDBS, Guildford, Surry, UK).

A further test has as its system HT-29 cells. Description: In vitro cell assay (MTS cell viability), HT-29 (target non-expressing). The conditions noted are these: Homo sapiens, HT-29, 96 h, free compounds; 96 hours after treatment; read-out: HT29 IC50. In kind it is cell-based. As to the method: as §1, §2
The test system of test [2] is N87 (gastric cancer) cells. Description: In vitro cell assay (MTS cell viability), N87. In kind it is cell-based. The conditions noted are these: 96 h, free compounds; 96 hours after treatment. As to the method:
as §1, §2

In test [3] the target is T1, tubulin/RB3-stathmin-like-domain (RB3-SLD-tdm) complex (Sus scrofa, UniProt P02550+P02554).
T1 construct: purchased Cytoskeleton, Inc. T240; host or cells: RB3-SLD was made in house in E. coli
In words: Tubulin Peptide-Binding Site Competition Assay (fluorescence polarization). The arrangement: species or system Porcine. As to conditions: FP competition with BODIPY-labeled vinca peptide probe; read after five hours at 22° C.; read-out: Tubulin Peptide-Binding Site Competition Assay IC50. Summed up: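 The BODIPY vinca-peptide probe was premixed with test compound and then added to porcine tubulin/RB3-SLD, at final concentrations of 3 nM probe, 6 nM tubulin and 100 nM RB3-SLD. The buffer was PIPES pH 7.0 with Tween 20, MgCl2 and EGTA, and 11-point dilutions were run in duplicate. IC50 was fitted from the fluorescence polarization decrease and converted to Ki.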
On the technique in general: In fluorescence polarisation assays a small probe gives low polarisation when free and higher when bound to something large.

Structures are written as SMILES. Where only a bound is given, the exact number is not on record here.

`CC[C@H](C)[C@H](NC(=O)[C@H](NC)C(C)C)C(=O)N(C)[C@H](C[C@@H](OC(C)=O)c1nc(C(=O)N[C@@H](Cc2ccccc2)C[C@H](C)C(=O)O)cs1)C(C)C` [#B12, N-methyl-D-valyl-N-[(1R,3R)-1-(acetyloxy)-1-(4-{[(2R,4S)-4-carboxy-1-phenylpentan-2-yl]carbamoyl}-1,3-thiazol-2-yl)-4-methylpentan-3-yl]-N-methyl-L-isoleucinamide]: the IC50 in test [1] was 2.97 nM; in the test with HT-29 cells, 4.52 nM; in test [2] it was 2.98 nM; in test [3] it was less than 0.458 nM.

As to `CC[C@H](C)[C@H](NC(=O)C12CCC(CC1)N2C)C(=O)N(C)[C@H](C[C@@H](OC(C)=O)c1nc(C(=O)N[C@@H](Cc2ccccc2)C[C@H](C)C(=O)OC)cs1)C(C)C` [#B13, methyl (2S,4R)-4-[({2-[(1R,3R)-1-(acetyloxy)-4-methyl-3-{methyl[(2S,3S)-3-methyl-2-{[(7-methyl-7-azabicyclo[2.2.1]hept-1-yl)carbonyl]amino}pentanoyl]amino}pentyl]-1,3-thiazol-4-yl}carbonyl)amino]-2-methyl-5-phenylpentanoate], the IC50 in test [1] was less than 0.036 nM; in the test on HT-29 cells it was less than 0.022 nM; in test [2], less than 0.061 nM; in test [3], 3.7 nM.

For the compound `CC[C@H](C)[C@H](NC(=O)C12CC(CCN1C)C2)C(=O)N(C)[C@H](C[C@@H](OC(C)=O)c1nc(C(=O)N[C@@H](Cc2ccccc2)C[C@H](C)C(=O)OC)cs1)C(C)C` [#B14, methyl (2S,4R)-4-[({2-[(1R,3R)-1-(acetyloxy)-4-methyl-3-(methyl{N-[(2-methyl-2-azabicyclo[3.1.1]hept-1-yl)carbonyl]-L-isoleucyl}amino)pentyl]-1,3-thiazol-4-yl}carbonyl)amino]-2-methyl-5-phenylpentanoate], the IC50 in test [1] was 0.017 nM; with HT-29 cells, 0.063 nM; in test [2], 0.337 nM; in test [3], 11.5 nM.

Turning to `CC[C@H](C)[C@H](NC(=O)[C@@]1(C)CCCN1C)C(=O)N(C)[C@H](C[C@@H](O)c1nc(C(=O)N[C@@H](Cc2ccccc2)C[C@H](C)C(=O)O)cs1)C(C)C` [#B15, 1,2-dimethyl-D-prolyl-N-[(1R,3R)-1-(4-{[(2R,4S)-4-carboxy-1-phenylpentan-2-yl]carbamoyl}-1,3-thiazol-2-yl)-1-hydroxy-4-methylpentan-3-yl]-N-methyl-L-isoleucinamide], the IC50 is more than 100 nM in test [1], more than 100 nM in the test on HT-29 cells, more than 100 nM in test [2] and 7 nM in test [3].

For `CC[C@H](C)[C@H](NC(=O)C12CCCC(CCC1)N2C)C(=O)N(C)[C@H](C[C@@H](OC(C)=O)c1nc(C(=O)N[C@@H](Cc2ccccc2)C[C@H](C)C(=O)OC)cs1)C(C)C` [#B16, methyl (2S,4R)-4-[({2-[(1R,3R)-1-(acetyloxy)-4-methyl-3-(methyl{N-[(9-methyl-9-azabicyclo[3.3.1]non-1-yl)carbonyl]-L-isoleucyl}amino)pentyl]-1,3-thiazol-4-yl}carbonyl)amino]-2-methyl-5-phenylpentanoate], the IC50 in test [1] was less than 0.064 nM; in the test with HT-29 cells, less than 0.026 nM; in test [2], less than 0.042 nM; in test [3] it was 10.4 nM.

`CC[C@H](C)[C@H](NC(=O)C12CC(CN1C)C2)C(=O)N(C)[C@H](C[C@@H](OC(C)=O)c1nc(C(=O)N[C@@H](Cc2ccccc2)C[C@H](C)C(=O)OC)cs1)C(C)C` [#B17, methyl (2S,4R)-4-[({2-[(1R,3R)-1-(acetyloxy)-4-methyl-3-(methyl{N-[(2-methyl-2-azabicyclo[2.1.1]hex-1-yl)carbonyl]-L-isoleucyl}amino)pentyl]-1,3-thiazol-4-yl}carbonyl)amino]-2-methyl-5-phenylpentanoate]: the IC50 in test [1] stood at 0.04 nM; in the test with HT-29 cells, 0.037 nM; in test [2], 0.386 nM; in test [3], 19.2 nM.

On to `CCNC(=O)O[C@H](C[C@H](C(C)C)N(C)C(=O)[C@@H](NC(=O)[C@@]1(C)CCCN1C)[C@@H](C)CC)c1nc(C(=O)N[C@@H](Cc2ccc(N)cc2)C[C@H](C)C(=O)O)cs1` [#B21, 1,2-dimethyl-D-prolyl-N-{(1R,3R)-1-(4-{[(2R,4S)-1-(4-aminophenyl)-4-carboxypentan-2-yl]carbamoyl}-1,3-thiazol-2-yl)-1-[(ethylcarbamoyl)oxy]-4-methylpentan-3-yl}-N-methyl-L-isoleucinamide], for which the IC50 in test [1] turned out to be 1.93 nM; in the test on HT-29 cells, 1.62 nM; in test [2], 1.87 nM; in test [3], 1.9 nM.

On to `CCNC(=O)O[C@H](C[C@H](C(C)C)N(C)C(=O)[C@@H](NC(=O)C12CCC(CC1)N2C)[C@@H](C)CC)c1nc(C(=O)N[C@@H](Cc2ccc(N)cc2)C[C@H](C)C(=O)O)cs1` [#B26, (2S,4R)-5-(4-aminophenyl)-4-{[(2-[(6R,8R,11S)-11-[(2S)-butan-2-yl]-9-methyl-13-(7-methyl-7-azabicyclo[2.2.1]hept-1-yl)-4,10,13-trioxo-8-(propan-2-yl)-5-oxa-3,9,12-triazatridecan-6-yl]-1,3-thiazol-4-yl}carbonyl)amino]-2-methylpentanoic acid], for which the IC50 in test [1] is 8.27 nM; in the test with HT-29 cells it was 8.83 nM; in test [2], 7.78 nM; in test [3], less than 0.5 nM.

For the compound `CCNC(=O)O[C@H](C[C@H](C(C)C)N(C)C(=O)[C@@H](NC(=O)C12CCCC(CCC1)N2C)[C@@H](C)CC)c1nc(C(=O)N[C@@H](Cc2ccc(N)cc2)C[C@H](C)C(=O)O)cs1` [#B27, (2S,4R)-5-(4-aminophenyl)-4-{[(2-{(1R,3R)-1-[(ethylcarbamoyl)oxy]-4-methyl-3-(methyl{N-[(9-methyl-9-azabicyclo[3.3.1]non-1-yl)carbonyl]-L-isoleucyl}amino)pentyl]-1,3-thiazol-4-yl}carbonyl)amino]-2-methylpentanoic acid], the IC50 is 5.46 nM in test [1], 5.39 nM in the test on HT-29 cells, 6.42 nM in test [2] and less than 0.648 nM in test [3].

Turning to `CC[C@H](C)[C@H](NC(=O)[C@@]1(C)CCCN1C)C(=O)N(C)[C@H](C[C@@H](OC(=O)NC)c1nc(C(=O)N[C@@H](Cc2ccc(N)cc2)C[C@H](C)C(=O)O)cs1)C(C)C` [#B30, 1,2-dimethyl-D-prolyl-N-{(1R,3R)-1-(4-{[(2R,4S)-1-(4-aminophenyl)-4-carboxypentan-2-yl]carbamoyl}-1,3-thiazol-2-yl)-4-methyl-1-[(methylcarbamoyl)oxy]pentan-3-yl}-N-methyl-L-isoleucinamide], the IC50 in test [1] amounted to 3.27 nM; with HT-29 cells, 1.81 nM; in test [2], 2.67 nM; in test [3], 3.2 nM.

In the case of `CC[C@H](C)[C@H](NC(=O)[C@@]1(C)CCCN1C)C(=O)N(C)[C@H](C[C@@H](OC(=O)N(C)C)c1nc(C(=O)N[C@@H](Cc2ccc(N)cc2)C[C@H](C)C(=O)O)cs1)C(C)C` [#B31, 1,2-dimethyl-D-prolyl-N-{(1R,3R)-1-(4-{[(2R,4S)-1-(4-aminophenyl)-4-carboxypentan-2-yl]carbamoyl}-1,3-thiazol-2-yl)-1-[(dimethylcarbamoyl)oxy]-4-methylpentan-3-yl}-N-methyl-L-isoleucinamide], the IC50 in test [1] is 4.04 nM; with HT-29 cells it was 3.86 nM; in test [2], 3.83 nM; in test [3], 3.1 nM.

On to `CC[C@H](C)[C@H](NC(=O)[C@@]1(C)CCCN1C)C(=O)N(C)[C@H](C[C@@H](O)c1nc(C(=O)N[C@@H](Cc2ccc(N)cc2)C[C@H](C)C(=O)O)cs1)C(C)C` [#B32, 1,2-dimethyl-D-prolyl-N-[(1R,3R)-1-(4-{[(2R,4S)-1-(4-aminophenyl)-4-carboxypentan-2-yl]carbamoyl}-1,3-thiazol-2-yl)-1-hydroxy-4-methylpentan-3-yl]-N-methyl-L-isoleucinamide], for which the IC50 in test [1] was more than 100 nM; in the test with HT-29 cells it was more than 100 nM; in test [2] it was more than 100 nM; in test [3], 12.3 nM.

As to `CC[C@H](C)[C@H](NC(=O)[C@@]1(C)CCCN1C)C(=O)N(C)[C@H](C[C@@H](OC(C)=O)c1nc(C(=O)NC(CO)Cc2ccccc2)cs1)C(C)C` (stereo partly drawn) [#B50, 1,2-dimethyl-D-prolyl-N-[(1R,3R)-1-(acetyloxy)-1-{4-[(1-hydroxy-3-phenylpropan-2-yl)carbamoyl]-1,3-thiazol-2-yl}-4-methylpentan-3-yl]-N-methyl-L-isoleucinamide], the IC50 in test [1] is 12.1 nM; in the test on HT-29 cells it was 8.84 nM; in test [2], 28.1 nM; in test [3], 8.6 nM.

Regarding `CC[C@H](C)[C@H](NC(=O)[C@@]1(C)CCCN1C)C(=O)N(C)[C@H](C[C@@H](OC(C)=O)c1nc(C(=O)N[C@@H](Cc2ccccc2)[C@@H](O)C(=O)OC)cs1)C(C)C` [#B51, 1,2-dimethyl-D-prolyl-N-[(1R,3R)-1-(acetyloxy)-1-(4-{[(2S,3R)-3-hydroxy-4-methoxy-4-oxo-1-phenylbutan-2-yl]carbamoyl}-1,3-thiazol-2-yl)-4-methylpentan-3-yl]-N-methyl-L-isoleucinamide], the IC50 in test [1] worked out at 2.94 nM; with HT-29 cells, 2.2 nM; in test [2], 7.78 nM; in test [3], 11.7 nM.

What is called IC50 is the point on the concentration scale where inhibition reaches its midpoint.

The record behind these values is patent US10723727B2, “Tubulysin analogs and methods for their preparation” (priority 2016, dated 2020).
